Square brackets hold non-standard residues; d marks the D form. Peptide text beside a SMILES is read from it. pS = N[C@@H](COP(=O)(O)O)C(=O)O

Data on one molecule can be found in patent US20230190870A1, “Method for Treating Lysosomal Storage Diseases with Histatin Peptides” (THE BOARD OF TRUSTEES OF THE UNIVERSITY OF ILLINOIS, priority 2020, published 2023).

The target in data set [1] is T1, GST-TMEM97 (108-176) (Homo sapiens, UniProt Q5BJF2).
T1 construct: GST-TMEM97 (108-176, recombinant GST-C terminal from wheat germ); purchased Abnova (Taipei City, Taiwan); host or cells: wheat germ (cell-free)
T1 sequence (Q5BJF2 108-176): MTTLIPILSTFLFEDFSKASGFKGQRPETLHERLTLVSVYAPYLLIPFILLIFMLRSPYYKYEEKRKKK
Nature of the data set: Surface plasmon resonance, immobilized GST-TMEM97 (108-176). As to conditions: for % Rmax: SPR. It is filed as binding. As to the method:
(§1) Surface Plasmon Resonance (SPR). Recombinant full-length TMEM97 (also called MAC30, from HEK293 cells) and GST-TMEM97 (108-176, recombinant GST-C terminal from wheat germ) proteins were purchased from OriGene (Rockville, Md.) and Abnova (Taipei City, Taiwan), respectively. Three peptides, TMEM97 (108-176), TMEM97 (108-143) and TMEM97 (144-176), were synthesized. All proteins and peptides were initially prepared in HBS buffer containing 10 mM HEPES, pH 7.4, 150 mM NaCl, and 0.05% surfactant P20. The CM5 sensor surface was first activated by 1-ethyl-3-(3-dimethylaminopropyl) carbodiimide hydrochloride (EDC)/N-hydroxy succinimide (NHS) mixture using a Biacore T200 or Biacore 8K instrument (GE Healthcare). […] Flow channels 1 and 3 were used as references.
(§2) The three synthesized peptides were diluted to 50 μg/mL in 10 mM sodium acetate at pH 4.0 and immobilized to flow channels 2, 3 and 4, respectively, on another sensor chip. The unmodified surfaces on a flow channel 1 were used as a reference control. Histatin solutions with a series of increasing concentrations (0.78-25 μM at 2-fold dilution) were applied to all four channels at a 30 μL/minute flow rate at 25° C. The data were double-referenced with reference channel and zero concentration responses, and reference subtracted sensorgrams were fitted with 1 to 1 Langmuir kinetic model using a Biacore T200 evaluation software V3.0 or Insight evaluation software. The equilibrium dissociation constants ([…]) were determined from two rate constants (KD=kd/ka).
(§3) To determine the region(s) of Hst1 that mediate binding to TMEM97, SPR testing was performed with various Hst1 fragments and either recombinant TMEM97 (GST-tagged, wheat-germ derived, C-terminal fragment TMEM97 (108-176)) or synthesized TMEM97 (TMEM97 (108-176), TMEM97 (108-143) and TMEM97 (144-176)).
Background: Surface plasmon resonance follows binding to a sensor surface in real time, without labels.

Data set [2] in a line: Circular dichroism secondary structure analysis (DichroWeb). The class given is physicochemical. The method, then:
Circular Dichroism (CD). CD analysis was performed on a Jasco 815 CD spectrometer at room temperature. TMEM97 (108-176) and Hst1 full-length peptides were prepared as 10 mM stock in 25% DMSO and water, respectively, and diluted to 0.15 mg/mL final concentration in 10 mM […] buffer. A total of 400 μL of each sample was added into a 1 mm quartz sample cell, and CD spectra were recorded from 260 nm to 190 nm wavelength. Data points were measure in 0.5 nm wavelength step at a scanning speed of 100 nm/minute. A total of five spectra were acquired for each sample and averaged. […] buffer without peptide was used as a control curve, which was subsequently subtracted from the CD spectra of peptide samples. The resulting buffer control subtracted CD intensity row data in millidegrees were submitted to DichroWeb and fitted with multiple embedded models and converted to mean residue ellipticity.
Subsequently, the hypothesis that interaction between Hst1 and TMEM97 could affect the structure of each protein was tested. Also, the secondary structure of Hst1 and TMEM97 was tested in solution using CD measurements. It was noted that Hst1 alone is mostly disordered (over 50%) with some degree of β-strand, while TMEM97 (108-176) contains some α-helical and β-strand regions with ˜34% disordered regions. According to CD spectra comparison, there seemed to be more secondary structures formed upon Hst1 binding to TMEM97 (108-176).
In general terms: Circular dichroism is the unequal absorption of left and right circularly polarised light.

Data set [3] has as its system NPC1 KD cells. Put plainly: LC3 immunolocalization in NPC1 KD cells (autophagy). The class given is cell-based. As to conditions: 20 μM or 50 μM. From the text: Autophagy. NPC1-deficiency results in increased autophagy as evidenced by elevated microtubule-associated protein 1 light chain 3 (LC3) levels, numerous autophagic vacuoles and enhanced degradation of long-lived proteins (Pacheco, et al. (2007) Human Mol. Genet. 16(12):1495-1503).

The subject of data set [4] is Human corneal epithelial cells. Put plainly: Calcium Green-2 calcium signaling in human corneal epithelial cells. It is filed as cell-based. As to the method: Calcium Signaling. Human corneal epithelial cells were treated with Hst1 or Hst5, stained with Calcium Green-2, and relative fluorescence intensity was monitored at 1, 2 and 4 hours. […] This normalization of cellular calcium levels seen after toxicity from benzalkonium chloride treatment is analogous to toxic effects seen in chronic pain and other conditions. As such, histatin peptides may of use in the amelioration of chronic pain.

In data set [5] the target is T2, Synthetic TMEM97 (108-143) (Homo sapiens, UniProt Q5BJF2).
T2 construct: made in house; host or cells: chemical solid-phase synthesis (Fmoc, Wang resin)
T2 sequence (Q5BJF2 108-143 limits assumed): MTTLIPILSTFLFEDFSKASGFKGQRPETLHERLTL
Nature of the data set: Surface plasmon resonance, immobilized synthetic TMEM97 (108-143). It is filed as binding. As to conditions: SPR. The method, then:
as §1, §2
To determine more precisely which segment of TMEM97 is necessary for binding of Hst1, multiple synthetic fragments of TMEM97 were generated (Table 6) and binding to Hst1 was tested using SPR. […] Smaller fragments of the C-terminal of TMEM97 were then constructed to represent the (predicted) luminal (108-143) and cytoplasmic (144-176) exposed segments of the C-terminus of TMEM97 based on modeling experiments previously described. […] SPR results for Hst1 were confirmed using ITC as an orthogonal analytical method.
as §3

The target in data set [6] is TMEM97 (Homo sapiens, UniProt Q5BJF2). Put plainly: ELISA on plates coated with TMEM97. The class given is binding. The method, then:
A co-immunoprecipitation (co-IP) assay was performed to determine if the interaction between Hst1 and TMEM97 was reproducible at the cellular level. […] These bands may represent monomeric and dimeric versions of Hst1 and are similar to what has been seen with western blot analyses of Hst1 containing samples. […] Enzyme-linked immunosorbent assay (ELISA) were also conducted to detect bound Hst1 on plates coated with TMEM97.
In general terms: ELISA stands for enzyme-linked immunosorbent assay.

Data set [7] has as its system NPC1 KD cells. Put plainly: Filipin staining of cholesterol in NPC1 knockdown cells. As to conditions: 20 μM or 50 μM. It is filed as cell-based. From the text:
Cholesterol. […] Filipin staining, the generally accepted tool for detection of cholesterol deposits in NPC cells (Vanier, et al. (2003) Clin. Genet. 64:269-81), was used to visualize cholesterol in control and NPC1 KD cells. This analysis indicated increased clustering and collection of filipin-stained cholesterol in NPC1 KD cells, consistent with the NPC1 phenotype.

The conditions of data set [8]: cyclization of histatin-1; cited from earlier work.
Setting [9] is: CD, fraction of secondary structure.

Chain of TMEM97 (Q5BJF2 whole entry, species assumed): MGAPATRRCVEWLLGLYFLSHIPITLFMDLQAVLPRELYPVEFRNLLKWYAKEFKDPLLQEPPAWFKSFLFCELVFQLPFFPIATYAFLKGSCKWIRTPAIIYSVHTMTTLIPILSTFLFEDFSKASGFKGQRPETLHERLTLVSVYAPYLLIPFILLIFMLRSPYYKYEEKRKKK

With `CC(C)C[C@H](NC(=O)[C@H](Cc1ccc(O)cc1)NC(=O)[C@H](CC(N)=O)NC(=O)[C@H](CO)NC(=O)CNC(=O)[C@H](Cc1ccc(O)cc1)NC(=O)[C@H](CC(=O)O)NC(=O)CNC(=O)[C@H](Cc1ccc(O)cc1)NC(=O)[C@H](Cc1ccccc1)NC(=O)[C@@H]1CCCN1C(=O)[C@H](Cc1ccccc1)NC(=O)[C@H](CCC(=O)O)NC(=O)[C@H](CCCNC(=N)N)NC(=O)[C@H](Cc1c[nH]cn1)NC(=O)[C@H](CO)NC(=O)[C@H](Cc1c[nH]cn1)NC(=O)[C@H](Cc1c[nH]cn1)NC(=O)[C@H](CCCCN)NC(=O)[C@H](CCC(=O)O)NC(=O)[C@H](Cc1c[nH]cn1)NC(=O)[C@H](Cc1ccccc1)NC(=O)[C@H](CCCCN)NC(=O)[C@H](CCCNC(=N)N)NC(=O)[C@H](CCCNC(=N)N)NC(=O)[C@H](Cc1ccc(O)cc1)NC(=O)CNC(=O)[C@H](Cc1c[nH]cn1)NC(=O)[C@H](Cc1c[nH]cn1)NC(=O)[C@H](CCCNC(=N)N)NC(=O)[C@H](CCCCN)NC(=O)[C@H](CCC(=O)O)NC(=O)[C@H](Cc1c[nH]cn1)NC(=O)[C@H](COP(=O)(O)O)NC(=O)[C@@H](N)CC(=O)O)C(=O)N[C@@H](Cc1ccc(O)cc1)C(=O)N[C@@H](CC(=O)O)C(=O)N[C@@H](CC(N)=O)C(=O)O` [Hst1] (H-D[pS]HEKRHHGYRRKFHEKHHSHREFPFYGDYGSNYLYDN-OH; N-terminus and C-terminus assumed), in data set [1], the “% Rmax” value is 43%. The “% Rmax” value in data set [1] (listed as Hst1(1-38)) was “(% Rmax = 23%)”. In addition, the “effect of added DTG or haloperidol on Hst1 binding” value in data set [1] (addition of either DTG or haloperidol) is recorded as “did not affect”. For the same molecule, the disordered regions result in data set [2] (CD in solution) was “over 50%”. For the same molecule, in data set [2] (setting [9]), the Helix was found to be 0.02, the Strand was 0.29, the Turns stood at 0.15 and the Unordered is 0.54. In data set [3], the LC3 levels entry was “dose-dependent reduction in LC3 levels”. Moreover, in data set [4] (1, 2 and 4 hours), the “calcium signaling (relative fluorescence intensity)” value is on record as “increases calcium signaling”. The “elevated calcium levels after benzalkonium chloride” value in data set [4] (cells treated with 0.001% BAK) is recorded as “reduced elevated calcium levels”. Further, the KD / binding result in data set [5] is reported as “unable to bind”. Besides, the KD / binding result in data set [5] (listed as Hst1(1-38)) was “No binding”. In addition, in data set [6], the “binding to TMEM97 in ELISA” value is “confirmed binding”. In addition, the “effect of DTG on Hst1 binding in ELISA” value in data set [6] (addition of 1,3-Di-o-tolylguanidine (DTG)) was “did not alter”. For the same molecule, the “cholesterol accumulation (Filipin staining)” value in data set [7] is “reduced cholesterol accumulation”. In data set [8], the “potentiation of molar activity by cyclization” value was “approximately 1000 fold”.
